Assay results reported in patent US20090099199A1, “ORGANIC COMPOUNDS” (priority 2007, published 2009).
Where a name gives a salt, the structure may show the parent alone.

Experiments:
[1] = biological target: T1, recombinant human NPY Y2 receptors (Homo sapiens, UniProt P49146); assay: Scintillation proximity [35S]GTPγS binding assay (inhibition of 0.5 nM NPY-stimulated [35S]GTPγS binding); type: biochemical; details: 10 μM compound, membranes from CHO-C4 cells expressing recombinant human NPY Y2 receptors, read-out: [%] inhibiton at 10 μM
T1 construct: expressed in transfected cells; host or cells: CHO-C4 cells (membrane preparation)
T1 sequence (P49146 1-381): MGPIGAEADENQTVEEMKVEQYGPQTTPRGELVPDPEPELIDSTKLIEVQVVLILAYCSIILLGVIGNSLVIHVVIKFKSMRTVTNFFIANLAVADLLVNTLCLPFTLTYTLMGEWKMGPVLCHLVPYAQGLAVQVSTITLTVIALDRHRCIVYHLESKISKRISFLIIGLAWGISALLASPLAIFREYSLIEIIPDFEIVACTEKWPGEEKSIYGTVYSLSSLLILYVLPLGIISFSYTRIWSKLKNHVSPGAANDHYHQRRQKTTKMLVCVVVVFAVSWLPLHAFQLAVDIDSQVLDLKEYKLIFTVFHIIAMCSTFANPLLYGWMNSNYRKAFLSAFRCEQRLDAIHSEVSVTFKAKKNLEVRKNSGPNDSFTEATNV
Experimental: Preparation of Membranes: CHO-C4 cells expressing recombinant human NPY Y2 receptors were used to prepare membranes for the GTPγS assay. Cells were grown to 80-95% confluency on 15-cm (225 cm^2) tissue culture plates. After aspiration of the culture medium, cells were washed twice with 18 ml ice-cold phosphate-buffered saline (PBS), scraped off and suspended in 3 ml ice-cold PBS in pre-cooled centrifuge tubes. The dishes were rinsed with 2 ml ice-cold PBS per dish and the washings were combined with the PBS cell suspension from above. Cells pooled from 5-7 dishes were centrifuged for 5 min at 10,000 rpm (12,000 g) in a Sorvall RC5B centrifuge using an SS34 rotor at 4° C. The cell pellet was resuspended in 5 ml ice-cold buffer (20 mM HEPES, 10 mM EDTA; pH 7.4) by vortexing (2-5 sec), homogenized using a Polytron (step 4 for 20-30 sec), and ice-cold buffer added to 25 ml. The suspension was centrifuged again for 20 min at 18,000 rpm (39,000 g) at 4° C. and the pellet resuspended in 5 ml ice-cold buffer (20 mM HEPES, 0.1 mM EDTA; pH 7.4) by vortexing (2-5 sec), homogenized with a Polytron (step 4 for 10 sec), and ice-cold buffer added to 25 ml. The suspension was centrifuged a third time for 20 min at 18,000 rpm (39,000 g) at 4° C. The pellet was resuspend in 1 ml ice-cold buffer (20 mM HEPES, 0.1 mM EDTA; pH 7.4) by vortexing (5-8 sec). Two to five resuspended pellets were combined and homogenized using a Polytron (step 4 for 15-25 sec). A small aliquot (20-50 μl) was removed for protein determination by the Coomassie Plus Protein Assay Reagent (Pierce) using BSA as standard. The membrane suspension was aliquoted in pre-cooled (on dry ice) Eppendorf tubes (0.25-1 ml/tube affording approximately 0.5-2 mg of membrane protein/tube). The pellets were frozen and stored at −80° C.
Scintillation proximity [^35S]GTPγS binding assay: Frozen membranes from CHO-C4 cells expressing recombinant human NPY Y2 receptors (2 mg for four 96-well plates) were thawed on ice. Thawed membranes were pipetted into 10 ml of assay buffer (20 mM HEPES, 10 mM MgCl2, 100 mM NaCl, pH 7.4) and homogenized briefly using a Polytron. The final assay mixture was prepared in 96-well microtiter plates (Isoplate Wallac, Perkin Elmer). The composition of the assay mixtures in a final volume of 250 μl per well was as follows: 20 mM HEPES, 10 mM MgCl2, 100 mM NaCl, pH 7.4, 30 μM GDP, 1 mg/ml BSA (added fresh), 5 μg membrane protein, 1.5 mg Wheatgerm agglutinin SPA beads (Amersham), 0.45 nM [^35S]GTPγS (Amersham, SJ1308. 1000 Ci/mmol, stabilized solution), and the test compounds (agonists and/or antagonists) at the appropriate concentrations. The samples were incubated at room temperature for 90 min by shaking, after which the SPA beads were sedimented by centrifugation in an Eppendorf 5804 centrifuge at 2700 rpm for 10 min at room temperature. After 60 min the plates were counted in a TopCount (Canberra). Basal [^35S]GTPγS binding was measured in the absence of agonist (NPY). Non-specific binding was measured in the presence of excess (10 μM) unlabelled GTPγS (Sigma). Nonspecific binding never exceeded 10% of basal binding and was thus not subtracted from the experimental data. Antagonists were tested for the inhibition of 0.5 nM NPY-stimulated [^35S]GTPγS binding. Antagonist inhibition curves were analyzed by non-linear regression using GraphPad Prism software (Version 4.0, GraphPad Software Inc., CA, USA).
Antagonistic activity of compounds of the present invention is examined by the Scintillation proximity [^35S]GTPγS binding assay as described above (inhibition of 0.5 nM NPY-stimulated [^35S]GTPγS binding). The table below represents percentages of inhibition at a concentration of 10 μM.

rats = details: icv administration (Thorsell et al. Neurosci. Lett. 2002); cited from earlier work

SMILES | inhibition at 10 µM [1] | ethanol self-administration (rats)
O=C(Nc1ccc(N2CCC(C(c3ccccc3)c3ccccc3)CC2)c(F)c1)C1CCOC1 (centres unmarked) [Compound 17, Tetrahydro-furan-3-carboxylic acid [4-(4-benzhydryl-piperidin-1-yl)-3-fluoro-phenyl]-amide] | 86% | –
Cc1noc(C)c1NC(=O)Nc1ccc(N2CCN(C(c3ccc(F)cc3)c3ccc(F)cc3)CC2)c(F)c1 [Compound 8, 1-(4-{4-[Bis-(4-fluoro-phenyl)-methyl]-piperazin-1-yl}-3-fluoro-phenyl)-3-(3,5-dimethyl-isoxazol-4-yl)-urea] | 86% | –
CCC(CC)C(=O)Nc1ccc(N2CCC(C(c3ccccc3)c3ccccc3)CC2)c(C#N)c1 [Compound 15, N-[4-(4-Benzhydryl-piperidin-1-yl)-3-cyano-phenyl]-2-ethyl-butyramide] | 86% | –
Cc1noc(C)c1NC(=O)Nc1ccc(N2CCC(C(c3ccccc3)c3ccccc3)CC2)c(C#N)c1 [Compound 13] | 91% | –
CCC(CC)Nc1nc2cc(N3CCN(C(c4ccccc4)c4ccccc4)CC3)c(F)cc2[nH]1 [Compound 23, 5-(4-Benzhydryl-piperazin-1-yl)-6-fluoro-1H-benzoimidazol-2-yl]-(1-ethyl-propyl)-amine triluoroacetate salt] | 72% | –
Cc1noc(C)c1NC(=O)Nc1ccc(N2CCN(C(c3ccc(F)cc3)c3ccc(F)cc3)CC2)c(C#N)c1 [Compound 7] | 87% | –
CCC(CC)C(=O)Nc1ccc(N2CCC(C(c3ccccc3)c3ccccc3)CC2)c(F)c1 [Compound 18, N-[4-(4-Benzhydryl-piperidin-1-yl)-3-fluoro-phenyl]-2-ethyl-butyramide] | 85% | –
N#Cc1cc(NC(=O)C2CCOC2)ccc1N1CCC(C(c2ccccc2)c2ccccc2)CC1 (centres unmarked) [Compound 14, Tetrahydro-furan-3-carboxylic acid [4-(4-benzhydryl-piperidin-1-yl)-3-cyano-phenyl]-amide] | 90% | –
Cc1noc(C)c1NC(=O)Nc1ccc(N2CCN(C(c3ccccc3)c3ccccc3)CC2)c(F)c1 [Compound 4, 1-[4-(4-Benzhydryl-piperazin-1-yl)-3-fluoro-phenyl]-3-(3,5-dimethyl-isoxazol-4-yl)-urea] | 89% | –
N#Cc1cc(NC(=O)C2CCOC2)ccc1N1CCN(C(c2ccccc2)c2ccccc2)CC1 (centres unmarked) [Compound 2, Tetrahydro-furan-3-carboxylic acid [4-(4-benzhydryl-piperazin-1-yl)-3-cyano-phenyl]-amide] | 89% | –
Cc1noc(C)c1Nc1nc2cc(N3CCN(C(c4ccccc4)c4ccccc4)CC3)c(F)cc2[nH]1 [Compound 22, [5-(4-Benzhydryl-piperazin-1-yl)-6-fluoro-1H-benzoimidazol-2-yl]-(3,5-dimethyl-isoxazol-4-yl)-amine triluoroacetate salt] | 71% | –
CCC(CC)c1nc2cc(N3CCN(C(c4ccccc4)c4ccccc4)CC3)c(F)cc2[nH]1 [Compound 19, 5-(4-Benzhydryl-piperazin-1-yl)-2-(1-ethyl-propyl)-6-fluoro-1H-benzoimidazole] | 82% | –
CCC(CC)C(=O)Nc1ccc(N2CCN(C(c3ccccn3)[C@H]3CCCO3)CC2)c(F)c1 (stereo partly drawn) [Compound 25, 2-Ethyl-N-{3-fluoro-4-[4-((R)-pyridin-2-yl-tetrahydro-furan-2-yl-methyl)-piperazin-1-yl]-phenyl}-butyramide] | 90% | –
Fc1cc2[nH]c(C3CCOC3)nc2cc1N1CCN(C(c2ccccc2)c2ccccc2)CC1 (centres unmarked) [Compound 20, 5-(4-Benzhydryl-piperazin-1-yl)-6-fluoro-2-(tetrahydro-furan-3-yl)-1H-benzoimidazole] | 53% | –
CCC(CC)C(=O)Nc1ccc(N2CCC(C(c3ccccn3)c3ccccn3)CC2)c(F)c1 [Compound 24, N-{4-[4-(Di-pyridin-2-yl-methyl)-piperidin-1-yl]-3-fluoro-phenyl}-2-ethyl-butyramide] | 95% | –
Cn1nccc1C(=O)Nc1ccc(N2CCN(C(c3ccccc3)c3ccccc3)CC2)c(F)c1 [Compound 12, 2-Methyl-2H-pyrazole-3-carboxylic acid [4-(4-benzhydryl-piperazin-1-yl)-3-fluoro-phenyl]-amide] | 65% | –
CCC(CC)C(=O)Nc1ccc(N2CCN(C(c3ccccc3)c3ccccc3)CC2)c(F)c1 [Compound 6] | 89% | –
Cn1cccc1C(=O)Nc1ccc(N2CCN(C(c3ccccc3)c3ccccc3)CC2)c(F)c1 [Compound 11, 1-Methyl-1H-pyrrole-2-carboxylic acid [4-(4-benzhydryl-piperazin-1-yl)-3-fluoro-phenyl]-amide] | 62% | –
Cc1noc(C)c1NC(=O)Nc1ccc(N2CCN(C(c3ccccc3)c3ccccc3)CC2)c(C#N)c1 [Compound 1, 1-[4-(4-Benzhydryl-piperazin-1-yl)-3-cyano-phenyl]-3-(3,5-dimethyl-isoxazol-4-yl)-urea] | 95% | –
O=C(Nc1ccc(N2CCN(C(c3ccccc3)c3ccccc3)CC2)c(F)c1)C1CCOC1 (centres unmarked) [Compound 5] | 85% | –
CCC(CC)C(=O)Nc1ccc(N2CCN(C(c3ccccc3)c3ccccc3)CC2)c(C#N)c1 [Compound 3, N-[4-(4-Benzhydryl-piperazin-1-yl)-3-cyano-phenyl]-2-ethyl-butyramide] | 88% | –
N=C(N)NCCC[C@H](NC(=O)CC1(CC(=O)N2CCN(C3c4ccccc4NC(=O)c4ccccc43)CC2)CCCC1)C(=O)NCCn1c(=O)n(-c2ccccc2)n(-c2ccccc2)c1=O (some centres unmarked) [BIIE0246] | – | dose dependently reduced ethanol self-administration
Cc1noc(C)c1NC(=O)Nc1ccc(N2CCC(C(c3ccccc3)c3ccccc3)CC2)c(F)c1 [Compound 16, 1-[4-(4-Benzhydryl-piperidin-1-yl)-3-fluoro-phenyl]-3-(3,5-dimethyl-isoxazol-4-yl)-urea] | 90% | –
Cc1noc(C)c1-c1nc2cc(N3CCN(C(c4ccccc4)c4ccccc4)CC3)c(F)cc2[nH]1 [Compound 21, 5-(4-Benzhydryl-piperazin-1-yl)-2-(3,5-dimethyl-isoxazol-4-yl)-6-fluoro-1H-benzoimidazole] | 44% | –
Cc1ncccc1C(=O)Nc1ccc(N2CCN(C(c3ccccc3)c3ccccc3)CC2)c(F)c1 [Compound 10, N-[4-(4-Benzhydryl-piperazin-1-yl)-3-fluoro-phenyl]-2-methyl-nicotinamide] | 85% | –
Cc1noc(C)c1C(=O)Nc1ccc(N2CCN(C(c3ccccc3)c3ccccc3)CC2)c(F)c1 [Compound 9, 3,5-Dimethyl-isoxazole-4-carboxylic acid [4-(4-benzhydryl-piperazin-1-yl)-3-fluoro-phenyl]-amide] | 85% | –
